Experimental data reported in US20120142730A1 (priority 2010, published 2012).

Experiments:
[1] = tested on: subjects with relapsing remitting multiple sclerosis (RRMS); test: ALLEGRO phase III trial: safety and tolerability; assay type: in vivo, human
Description: Eligible subjects were equally randomized 1:1 into one of the following treatment arms: • 1. […] 21, 2007 (see, page 10, line 5 to page 11, line 3). • 2. Matching placebo for laquinimod arm: one capsule is administered once daily.
The following assessments were performed at specified time points: • 1. Vital signs were measured at each study visit. • 2. A physical examination is performed at months −1 (screening), (baseline) 1, 3, 6, 12, 18 and 24 (termination/early discontinuation core study). In case of the 6 months extended study, additional examination was performed at month 30 (termination/early discontinuation of extended study). • 3. The following safety clinical laboratory tests were performed: • a. Complete blood count (CBC) with differential—at all scheduled visits. A reticulocyte count was added to the CBC at months 0 (baseline) and 24/30 (termination/early discontinuation). • b. Serum chemistry (including electrolytes, liver enzymes, direct and total bilirubin and pancreatic amylase and CPK), and urinalysis—at all scheduled visits. • c. A rapid urine β-hCG test was performed in women of child-bearing potential at baseline (month 0) and at each scheduled study visit thereafter (at site). • d. β-hCG in women of child-bearing potential was performed at all scheduled visits. • e. Starting after visit Month 3 a rapid urine β-hCG test was performed in women of child-bearing potential every 28 (±2) days. […] Adverse Events (AEs) are monitored throughout the study. • 9. Concomitant medications are monitored throughout the study. • 10. […] MS functional Composite (MSFC) was assessed at months −1 (screening) (three practices for training purposes only), at month 0 (baseline), 6, 12, 18 and 24 (termination/early discontinuation). […] Subject-reported fatigue was assessed by the Modified Fatigue Impact Scale (MFIS) at months 0, 6, 12, 18, and 24 (termination/early discontinuation). […] The general health status was assessed by the EuroQoL (EQ5D) questionnaire at month 0 (baseline) and month 24 (termination/early discontinuation of the study). […]

[2] = tested on: subjects with relapsing remitting multiple sclerosis (RRMS); test: ALLEGRO phase III trial: disability endpoints (EDSS, MSFC); assay type: in vivo, human; details: for Patients with confirmed (3 months) EDSS progression: after 24 months
Description: Eligible subjects were equally randomized 1:1 into one of the following treatment arms: • 1. […] 21, 2007 (see, page 10, line 5 to page 11, line 3). • 2. Matching placebo for laquinimod arm: one capsule is administered once daily. Secondary endpoints were disability progression as measured by the EDSS and the Multiple Sclerosis Functional Composite (MSFC). Confirmed disability progression was defined as an increase of ≧1.0 EDSS point from baseline if baseline EDSS was between 0 and 5.0, or an increase of ≧0.5 point if baseline EDSS was ≧5.5. In order to confirm EDSS progression, these increases had to be sustained for at least three months. Additional predefined disability endpoints include the proportion of patients without confirmed disability progression at 24 months; confirmed disability progression (defined as change in EDSS scores≧1.0 points for baseline EDSS 0 to 5.0 or ≧5.5) sustained for six months; the accumulation of physical disability as measured by mean EDSS and the mean change in EDSS from baseline to last observed value (LOV). For the MSFC, the measure was the total MSFC z score at 24 months (including patients who terminated after 12 months). The 9-hole peg test (9HPT) and the Paced Auditory Serial Addition Test (PASAT) were performed three times at screening to reduce confounding training effects during the trial. The analysis of the accumulation of physical disability is based on Cox's Proportional Hazard model. The analysis of MSFC is based on baseline-adjusted Analysis of Covariance. The analysis of the secondary MRI endpoints is based on baseline-adjusted Negative Binomial Regression. To control against type-I error, the secondary endpoints were analyzed only after a significant effect was found for the primary endpoint. Likewise, the study's overall type-I error was further controlled in the analysis of the secondary endpoints by applying the following gate-keeping approach: both the cumulative number of new/enlarging T2 and the cumulative number of GdE lesions at months 12 and 24 were tested simultaneously and needed to be statistically significant at p<0.05, or one needed to be significant at p<0.025 if the other endpoint was not statistically significant at the 5% level. If the above condition was met, the study then proceeded to the analysis of the confirmed EDSS progression endpoint, if this endpoint was significant at 5% level, the analysis was done for the total MSFC z-scores. The analysis of risk to confirmed disability progression using the ITT cohort was based on Cox's Proportional Hazard model adjusted to baseline EDSS, log of the prior 2 year number of relapses +1 and geographical region. The MSFC at month 24 was analyzed using a baseline-adjusted ANCOVA (SAS@PROC GLM) with baseline MSFC as 1 degree of freedom covariate and baseline EDSS score, log of the 2-year prior relapse rate +1 and country or geographical region as additional covariates.

[3] = 0.6 mg daily oral, listed as laquinimod

## CCN(C(=O)c1c(O)c2c(Cl)cccc2n(C)c1=O)c1ccccc1 [Laquinimod, laquinimod]
[1]; 0.6 mg daily oral, 24 months
  Deaths: No deaths
[1]; human, in vivo
  Time of occurrence of ALT elevations up to 5×ULN: ≤ 6 months
[1]; in vivo
  Reversibility of ALT elevations up to 5×ULN: all were reversible
[2]; 0.6 mg daily oral
  Median EDSS score at LOV: 2.5
  Patients with confirmed (3 months) EDSS progression: 9.8% progressed
[2]; 0.6 mg daily oral vs placebo
  Decrease in the risk for 6 month confirmed EDSS progression: 48%
  Reduction in risk of confirmed progression requiring persistence of EDSS change at the last available visit: 35%
  Time to confirmed (3 Ms) progression EDSS: reduction of risk to progress: 36% reduction of risk
[2]; 0.6 mg daily oral vs placebo, p=0.5893
  Adjusted mean total MSFC z score at 24 months, difference from placebo: no significant differences
[2]; 0.6 mg daily oral vs placebo, listed as laquinimod
  Time to confirmed (3 Ms) progression EDSS: reduction of risk to progress: 36%
[2]; [3]
  Patients with confirmed (3 months) EDSS progression: 9.8%
  MSFC total z score at 24 months (including early terminations after 12 months), mean: 0.056
[2]; 0.6 mg daily oral, baseline adjusted ANCOVA
  Mean EDSS score at LOV: 2.68
[2]; 0.6 mg daily oral, n = 550
  Patients with no confirmed disability progression at LOV: (90.2%)
  Patients with no confirmed disability progression at LOV, number: 496
[2]; post-hoc subgroup analysis, 33/54 patients
  Patients who progressed and also had a relapse during the study: 61.1%
